This data set in a line: Miscibility of pheromones with corn oil or triethylcitrate. The format is physicochemical. From the text: Miscibility of the active ingredient and diluents were further examined by forming mixtures of various active ingredients (pheromones) with corn oil or triethylcitrate. The final composition of the mixture produced was 40 vol. % pheromones and 60 vol. % diluent (i.e., corn oil or triethyl citrate). The individual pheromones evaluated were: tomato pinworm, pink bollworm, leafroller, oriental fruitmoth, and coddling moth.

Consider one compound from patent US20030124167A1, “Pest controlling” (priority 1999, published 2003).

For `C/C=C/C=C/CCCCCCCO` [coddling moth], the “Dissolution in both corn oil and triethyl citrate” value (pheromone solid at room temperature) was “dissolved freely”. For the same compound, the “Miscibility in corn oil or triethylcitrate” value (room temperature, 40 vol. % pheromones/60 vol. % diluent) is on record as “completely miscible”.
